Source: US9586951B2 (FUJIFILM Corporation, priority 2013, dated 2017)

Experiments:
[1] = tested on: human non-small cell lung cancer cell line NCI-H460; assay: Cell proliferation inhibition test by sensitivity-enhancing to ionizing radiation (Cell Titer Glo); assay type: cell-based; conditions: concentration in which SER became 2, NCI-H460 cells, ionizing radiation 2 Gy, cultured 120 hour
How it was run: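 Cells seeded at 2×10^3 cells/mL in RPMI-1640 with 10% FBS; after 24 h, compound added (0.1% DMSO), and 30 min later half the plates irradiated at 2 Gy. After 120 hour at 37° C, viability by Cell Titer Glo luminescence; SER2 is the concentration giving SER of 2 by sigmoidal fit.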

ATM = biological target: T1, ATM (Homo sapiens, UniProt Q13315); assay: ATM inhibition test (phosphorylation of Chk2 generated by ionizing radiation, AlphaScreen SureFire); assay type: cell-based; conditions: phosphorylated Chk2 in NCI-H460 cells, ionizing radiation 8Gy, 1 hour after test compound treatment; read-out: ATM inhibitory activity
T1 construct: detecting phosphorylation of Chk2 in a human non-small cell lung cancer cell line NCI-H460 (ATCC company); host or cells: NCI-H460 human non-small cell lung cancer cells
How it was run: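 Phosphorylated Chk2 read by AlphaScreen SureFire in human non-small cell lung cancer NCI-H460 cells, 1 hour after 8Gy ionizing radiation at 37° C. Compound added 1 hour before irradiation. Percent inhibition normalised between irradiated and non-irradiated drug-untreated signals.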

T1 sequence (Q13315 whole entry): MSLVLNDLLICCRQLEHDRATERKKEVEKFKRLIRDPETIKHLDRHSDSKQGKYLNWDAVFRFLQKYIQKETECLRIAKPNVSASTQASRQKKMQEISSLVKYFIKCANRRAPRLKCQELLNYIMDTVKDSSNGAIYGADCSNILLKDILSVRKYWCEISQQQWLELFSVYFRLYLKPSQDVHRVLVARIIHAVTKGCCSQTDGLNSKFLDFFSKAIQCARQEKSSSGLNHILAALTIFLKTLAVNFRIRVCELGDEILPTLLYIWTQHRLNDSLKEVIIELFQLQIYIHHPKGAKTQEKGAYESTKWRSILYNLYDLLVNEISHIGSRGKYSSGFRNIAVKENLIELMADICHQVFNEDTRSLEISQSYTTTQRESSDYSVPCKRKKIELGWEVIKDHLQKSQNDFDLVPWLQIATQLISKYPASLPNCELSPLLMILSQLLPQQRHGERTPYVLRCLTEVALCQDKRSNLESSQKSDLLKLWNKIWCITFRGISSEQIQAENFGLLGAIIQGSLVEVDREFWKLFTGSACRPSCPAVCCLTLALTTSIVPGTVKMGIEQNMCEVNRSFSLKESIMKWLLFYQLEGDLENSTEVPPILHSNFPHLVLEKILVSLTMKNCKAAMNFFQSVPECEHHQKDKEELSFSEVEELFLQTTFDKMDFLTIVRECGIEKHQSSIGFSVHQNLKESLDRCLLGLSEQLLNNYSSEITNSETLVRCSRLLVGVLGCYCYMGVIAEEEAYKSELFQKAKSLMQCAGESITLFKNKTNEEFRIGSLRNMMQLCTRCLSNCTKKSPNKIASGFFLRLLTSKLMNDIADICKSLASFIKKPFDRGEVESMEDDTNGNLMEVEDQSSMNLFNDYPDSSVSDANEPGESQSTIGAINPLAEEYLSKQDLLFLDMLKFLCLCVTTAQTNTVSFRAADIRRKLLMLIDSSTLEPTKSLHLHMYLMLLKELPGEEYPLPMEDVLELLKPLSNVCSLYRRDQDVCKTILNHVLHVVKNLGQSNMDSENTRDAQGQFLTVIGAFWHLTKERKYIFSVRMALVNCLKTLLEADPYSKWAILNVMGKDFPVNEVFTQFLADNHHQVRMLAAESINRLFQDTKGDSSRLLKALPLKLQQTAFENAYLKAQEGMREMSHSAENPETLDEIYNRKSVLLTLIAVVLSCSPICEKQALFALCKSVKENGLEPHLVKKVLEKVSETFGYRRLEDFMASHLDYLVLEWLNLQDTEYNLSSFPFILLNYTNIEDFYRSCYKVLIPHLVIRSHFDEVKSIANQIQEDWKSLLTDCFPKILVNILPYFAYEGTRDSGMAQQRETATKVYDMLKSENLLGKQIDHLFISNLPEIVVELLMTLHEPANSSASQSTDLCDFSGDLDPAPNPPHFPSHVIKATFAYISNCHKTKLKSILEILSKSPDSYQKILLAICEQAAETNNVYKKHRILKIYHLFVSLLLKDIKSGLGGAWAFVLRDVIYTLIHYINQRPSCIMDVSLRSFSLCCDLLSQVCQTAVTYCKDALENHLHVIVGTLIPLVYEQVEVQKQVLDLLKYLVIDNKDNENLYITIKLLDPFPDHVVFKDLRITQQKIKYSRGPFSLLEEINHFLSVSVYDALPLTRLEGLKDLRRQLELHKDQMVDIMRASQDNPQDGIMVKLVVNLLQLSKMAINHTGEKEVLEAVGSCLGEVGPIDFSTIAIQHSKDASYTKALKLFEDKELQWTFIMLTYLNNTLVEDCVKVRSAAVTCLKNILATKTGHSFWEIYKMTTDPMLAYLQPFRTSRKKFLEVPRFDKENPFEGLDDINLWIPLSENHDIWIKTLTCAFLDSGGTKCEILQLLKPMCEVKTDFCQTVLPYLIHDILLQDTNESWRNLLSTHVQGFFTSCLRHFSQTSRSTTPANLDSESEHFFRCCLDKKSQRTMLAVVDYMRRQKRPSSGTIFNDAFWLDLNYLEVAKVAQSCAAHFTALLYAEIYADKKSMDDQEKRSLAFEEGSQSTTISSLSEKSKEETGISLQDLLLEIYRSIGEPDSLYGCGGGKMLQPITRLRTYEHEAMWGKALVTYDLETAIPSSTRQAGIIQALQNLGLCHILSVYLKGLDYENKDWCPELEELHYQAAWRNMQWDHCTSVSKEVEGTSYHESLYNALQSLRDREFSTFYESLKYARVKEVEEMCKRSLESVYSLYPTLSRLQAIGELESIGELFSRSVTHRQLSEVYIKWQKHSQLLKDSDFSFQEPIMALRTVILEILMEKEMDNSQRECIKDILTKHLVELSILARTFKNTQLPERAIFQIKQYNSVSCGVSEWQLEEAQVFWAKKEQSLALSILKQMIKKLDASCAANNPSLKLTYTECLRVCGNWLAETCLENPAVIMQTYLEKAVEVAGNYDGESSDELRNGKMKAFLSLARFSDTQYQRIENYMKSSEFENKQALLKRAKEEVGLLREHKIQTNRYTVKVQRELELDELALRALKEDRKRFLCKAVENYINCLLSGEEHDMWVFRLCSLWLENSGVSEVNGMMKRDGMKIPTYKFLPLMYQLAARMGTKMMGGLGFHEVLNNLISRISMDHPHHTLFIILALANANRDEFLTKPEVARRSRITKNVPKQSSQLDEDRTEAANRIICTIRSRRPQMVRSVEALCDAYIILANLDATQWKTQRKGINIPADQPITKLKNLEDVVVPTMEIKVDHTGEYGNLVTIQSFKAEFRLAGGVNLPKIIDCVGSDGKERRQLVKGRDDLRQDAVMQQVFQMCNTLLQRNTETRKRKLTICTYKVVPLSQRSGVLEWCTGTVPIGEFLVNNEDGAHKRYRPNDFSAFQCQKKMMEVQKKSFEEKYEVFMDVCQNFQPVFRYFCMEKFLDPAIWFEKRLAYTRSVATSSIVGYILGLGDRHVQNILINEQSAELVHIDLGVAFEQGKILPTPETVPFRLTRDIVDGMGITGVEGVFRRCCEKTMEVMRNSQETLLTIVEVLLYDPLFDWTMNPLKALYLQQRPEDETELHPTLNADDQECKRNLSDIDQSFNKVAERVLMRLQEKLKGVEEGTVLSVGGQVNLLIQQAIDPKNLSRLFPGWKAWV

Row | IC50 (ATM) [nM] | Structure (SMILES) | SER2 (concentration at which the radiation sensitivity-enhancement ratio reaches 2) [1] [nM] | SER2 (concentration at which the radiation sensitivity-enhancement ratio reaches 2) ([1]; Homo sapiens, NCI-H460, 120 h) [nM] | SER2 (concentration at which the radiation sensitivity-enhancement ratio reaches 2) ([1]; Homo sapiens) [nM]
1 | < 100 | Cc1cccc(C(CCN(C)C)Nc2ccc3c(c2)Sc2cccc(-c4cc(N5CCOCC5)cc(=O)[nH]4)c2S3)n1 (single isomer, unassigned) [Example 1-22-11-2, 6-(7-((3-(dimethylamino)-1-(6-methylpyridin-2-yl)propyl)amino)thianthren-1-yl)-4-morpholinopyridin-2(1H)-one] | < 100 | – | –
2 | < 100 | CCOc1ccnc(CNc2ccc3c(c2)Cc2cccc(-c4cc(N5CCOCC5)cc(=O)[nH]4)c2O3)c1 [Example 2-13-11, 6-(7-(((4-Ethoxypyridin-2-yl)methyl)amino)-9H-xanthen-4-yl)-4-morpholino pyridin-2(1H)-one] | – | 100 to 500 | –
3 | < 100 | Cc1cccc(CNc2ccc3c(c2)Sc2cccc(-c4cc(N5CCOCC5)cc(=O)[nH]4)c2O3)n1 [Example 4-8-5, 6-(8-(((6-Methylpyridin-2-yl)methyl)amino)phenoxathiin-4-yl)-4-morpholino pyridin-2(1H)-one] | – | 100 to 500 | –
4 | < 100 | Cc1cccc(C(CO)Nc2ccc3c(c2)Sc2cccc(-c4cc(N5CCOCC5)cc(=O)[nH]4)c2S3)n1 (single isomer, unassigned) [Example 1-12-140-2, 6-(7-((2-hydroxy-1-(6-methylpyridin-2-yl)ethyl)amino)thianthren-1-yl)-4-morpholinopyridin-2(1H)-one] | – | < 100 | –
5 | < 100 | COc1cccc(CNc2ccc3c(c2)Sc2cccc(-c4cc(N5CCOCC5)cc(=O)[nH]4)c2O3)n1 [Example 4-8-18, 6-(8-(((6-Methoxypyridin-2-yl)methyl)amino)phenoxathiin-4-yl)-4-morpholino pyridin-2 (1H)-one] | – | 100 to 500 | –

More lines, now with the values behind:

Row | Structure (SMILES) | IC50 (ATM) [nM] | SER2 (concentration at which the radiation sensitivity-enhancement ratio reaches 2) [1] [nM] | SER2 (concentration at which the radiation sensitivity-enhancement ratio reaches 2) ([1]; Homo sapiens, NCI-H460, 120 h) [nM] | SER2 (concentration at which the radiation sensitivity-enhancement ratio reaches 2) ([1]; Homo sapiens) [nM]
6 | O=c1cc(N2CCOCC2)cc(-c2cccc3c2Sc2ccc(NCCN4CCCCC4)cc2S3)[nH]1 [Example 1-10-10] | < 100 | – | 100 to 500 | –
7 | CC(Nc1ccc2c(c1)Sc1cccc(-c3cc(N4CCOCC4)cc(=O)[nH]3)c1S2)c1cnccn1 (stereo not shown) [Example 1-12-63, 4-Morpholino-6-(7-((1-(pyrazin-2-yl)ethyl)amino)thianthren-1-yl)pyridin-2 (1H)-one] | < 100 | – | 100 to 500 | –
8 | Cc1ccnc(C(C)Nc2ccc3c(c2)Sc2cccc(-c4cc(N5CCOCC5)cc(=O)[nH]4)c2S3)n1 (single isomer, unassigned) [Example 1-12-144-1, 6-(7-((1-(4-methylpyrimidin-2-yl)ethyl)amino)thianthren-1-yl)-4-morpholinopyridin-2(1H)-one] | < 100 | – | < 100 | –
9 | O=c1cc(N2CCOCC2)cc(-c2cccc3c2Sc2ccc(NC4CCN(Cc5cccnc5)CC4)cc2S3)[nH]1 [Example 1-24-17, 4-Morpholino-6-(7-((1-(pyridin-3-ylmethyl)piperidin-4-yl)amino)thianthren-1-yl)pyridin-2 (1H)-one] | < 100 | – | 100 to 500 | –
10 | CCN(C)CCC(Nc1ccc2c(c1)Sc1cccc(-c3cc(N4CCOCC4)cc(=O)[nH]3)c1S2)c1cccc(C)n1 (stereo not shown) [Example 1-23-1, 6-(7-((3-(ethyl(methyl)amino)-1-(6-methylpyridin-2-yl)propyl)amino)thianthren-1-yl)-4-morpholinopyridin-2(1H)-one] | < 100 | – | 100 to 500 | –
11 | O=c1cc(N2CCOCC2)cc(-c2cccc3c2Sc2ccc(NC(CF)CN4CCCCC4)cc2S3)[nH]1 (stereo not shown) [Example 1-41-2, 6-(7-((1-Fluoro-3-(piperidin-1-yl)propan-2-yl)amino)thianthren-1-yl)-4-morpholinopyridin-2(1H)-one] | < 100 | – | – | 100 to 500
